Read-outs that look alike come from different tables or passages of the source.
How the values were obtained:
[1] = test system: Spontaneously Hypertensive Rats; experiment: Test 1: antihypertensive effects (systolic tail artery blood pressure) and heart rate in spontaneously hypertensive rats, oral; assay type: in vivo, rat (male, SHR); conditions: for change in vivo at 1 mg/kg / change in vivo at 10 mg/kg: Rattus norvegicus; for Change (%) in heart rate: maximum value
Protocol: The antihypertensive effects of the certain compounds of this invention were studied in the following manner.
Among male, spontaneously hypertensive rats (SHRs) of 20 weeks of age or older and 350-430 g heavy all of which had developed hypertension, those having systolic blood pressures of 180 mmHg or higher were used in groups, each of which was constituted of 3-4 of the rats. […] Besides, heart rates were also measured simultaneously. The compounds were each dissolved or suspended in a 0.5% methylcellulose solution and then administered orally.
*All administered orally at a dosage of 1 mg/Kg except for the compounds
**Each percent change in heart rate is indicated by the corresponding

[2] = test system: Mouse; experiment: Test 2: acute toxicity, mouse, oral; assay type: in vivo, male ddy-mice; conditions: fourteenth day
Protocol: The acute toxicity of certain compounds of this invention were studied in the following manner.
Namely, male ddy-mice of 5 weeks of age and male Wister rats of 8 weeks of age were fasted for 18 hours and used in groups each of which was constituted of 4-5 of mice or rats. The compounds were each dissolved or suspended in a 0.5% methylcellulose solution and administered orally (P.O.). On the fourteenth day after the administration, their toxicity were judged.
Each numeral set indicates the number of dead animals/the number of teste
animals. Hyphens (--) indicate that no tests were effected.

[3] = SHR, oral 1 mg/Kg, 1 hour, read-out: Antihypertensive effects, change (%) in blood pressure, 1 hour later
[4] = SHR, oral 1 mg/Kg, 3 hours, read-out: Antihypertensive effects, change (%) in blood pressure, 3 hours later
[5] = SHR, oral 1 mg/Kg, 6 hours, read-out: Antihypertensive effects, change (%) in blood pressure, 6 hours later
[6] = SHR, oral 1 mg/Kg, 24 hours, read-out: Antihypertensive effects, change (%) in blood pressure, 24 hours later

SMILES | change in vivo at 1 mg/kg [1, 3] [%] | change in vivo at 1 mg/kg [1, 4] [%] | change in vivo at 1 mg/kg [1, 5] [%] | change in vivo at 1 mg/kg [1, 6] [%] | Change (%) in heart rate ([1]; SHR, oral 1 mg/Kg) | Acute Toxicity, number of dead animals/number of tested animals ([2]; 1 g/Kg P.O.) | also measured
COc1cc2nc(N3CCN(c4ncc5ccccc5n4)CC3)nc(N)c2cc1OC [Example 70] | -7.8 | -17.5 | -23.3 | -4.4 | +13.7% | 0/4 | 
CCN1CCC(=O)c2cnc(N3CCN(c4nc(N)c5cc(OC)c(OC)cc5n4)CC3)nc21 [Example 21] | -17.2 | -23.2 | -23.6 | -3.4 | +7.4% | 0/4 | 
CCN1C(=O)Cc2cnc(N3CCN(c4nc(N)c5cc(OC)c(OC)cc5n4)CC3)nc21 [Example 28] | -17.2 | -15.3 | -31.6 | -3.3 | +11.7% | 0/5 | 
COc1cc2nc(N3CCN(C(=O)C4CCCO4)CC3)nc(N)c2cc1OC (stereo not drawn) [Terazosin, terazosin, reference compound] |  |  |  |  | +7.2% | 0/5 | change in vivo at 1 mg/kg ([1]; po, 1 h, read-out: Antihypertensive effects, change (%) in blood pressure, 1 hour later): -22.4%; change in vivo at 1 mg/kg ([1]; po, 3 h, read-out: Antihypertensive effects, change (%) in blood pressure, 3 hours later): -25.9%; change in vivo at 1 mg/kg ([1]; po, 6 h, read-out: Antihypertensive effects, change (%) in blood pressure, 6 hours later): -23.4%; change in vivo at 1 mg/kg ([1]; po, 24 h, read-out: Antihypertensive effects, change (%) in blood pressure, 24 hours later): -5.4%; Acute Toxicity, number of dead animals/number of tested animals ([2]; 3 g/Kg P.O.): 1/5
CCOC(=O)c1cnc(N2CCN(c3nc(N)c4cc(OC)c(OC)cc4n3)CC2)nc1C [Example 39] | -4.4 | -12.7 | -7.3 | 1.5 | +2.2% | 0/5 | 
COc1cc2nc(N3CCN(c4ncc5c(n4)CN(C(C)C)C5=O)CC3)nc(N)c2cc1OC [Example 25] | -4.3 | -23.9 | -35.4 | -6.7 | +12.9% | 0/5 | 
COc1cc2nc(N3CCN(c4ncc5c(n4)CCCC5=O)CC3)nc(N)c2cc1OC [Example 33] | -20.4 | -27 | -32.1 | -9.7 | +17.5% |  | 
CCn1ccc2nc(N3CCN(c4ncc5cc(OC)c(OC)cc5n4)CC3)ncc2c1=O [Example 95, 6,7-Dimethoxy-2-(4-(5,6-dihydro-6-ethyl-5-oxopyrido[4,3-d]pyrimidine-2-yl)piperazino)quinazoline] | 2.5 | -2.9 | -6.4 | -3.9 | +5.8% |  | 
COc1cc2nc(N3CCN(c4ncc5c(n4)CN(CCN(C)C)C5=O)CC3)nc(N)c2cc1OC [Example 86] | 0.5 | 0 | -6.4 | -0.5 | +7.1% |  | 
CCn1cc(C)c2nc(N3CCN(c4nc(N)c5cc(OC)c(OC)cc5n4)CC3)ncc2c1=O [Example 12] | -11 | -14.3 | -19 | -6.7 | +7.0% |  | 
COc1cc2nc(N3CCN(c4ncc5c(n4)N(C)CCN(C)C5=O)CC3)nc(N)c2cc1OC [Example 76] | 0 | -3.8 | -7.2 | -9.6 | +2.9% |  | 
CCN(CC)C(=O)c1cnc(N2CCN(c3nc(N)c4cc(OC)c(OC)cc4n3)CC2)nc1N [Example 65] |  |  |  |  |  |  | change in vivo at 10 mg/kg ([1]; SHR, oral 10 mg/Kg, 1 hour, read-out: Antihypertensive effects, change (%) in blood pressure, 1 hour later): -4.9%; change in vivo at 10 mg/kg ([1]; SHR, oral 10 mg/Kg, 3 hours, read-out: Antihypertensive effects, change (%) in blood pressure, 3 hours later): -18.4%; change in vivo at 10 mg/kg ([1]; SHR, oral 10 mg/Kg, 6 hours, read-out: Antihypertensive effects, change (%) in blood pressure, 6 hours later): -21.4%; change in vivo at 10 mg/kg ([1]; SHR, oral 10 mg/Kg, 24 hours, read-out: Antihypertensive effects, change (%) in blood pressure, 24 hours later): -6.3%; Change (%) in heart rate ([1]; SHR, oral 10 mg/Kg): +8.9%
COc1cc2nc(N3CCN(c4ncc(C(=O)N(C)C)c(C)n4)CC3)nc(N)c2cc1OC [Example 46] | 0 | -11.9 | -17.5 | -5.7 | +7.4% |  | 

— US4734418A, “Quinazoline compounds and antihypertensives” (priority 1984, dated 1988)
